Paper PMC6152131, “Pharmacokinetic Study of Biotransformation Products from an Anxiolytic Fraction of Tilia americana” (Molecules : A Journal of Synthetic Chemistry and Natural …, 2017)
Read-outs that look alike come from different tables or passages of the source.

Tests used:
[1] = Plasma concentration after a single oral dose of the anxiolytic fraction (HPLC); format: in vivo, ICR mice; conditions: oral 200 mg/kg anxiolytic fraction, immediately after administration and over 24 h
Experimental: Eleven groups of ten animals each were randomly formed. All animals were orally administered with 200 mg/kg of the active fraction. Animals were anaesthetized with ether, and blood samples were obtained from the retroorbital sinus with a heparinized capillary, each group was examined at different times (0, 5, 10, 15, 30, 60, 120, 240, 480, 720, and 1440 min) after the active fraction was administered. […] Then the plasma samples were frozen and lyophilized. The dry plasma was subsequently used to extract and measure the concentration of the flavonoids and biotransformation products.
(§1) Plasma dried pulverized samples were extracted with methanol (HPLC grade, Merck). The extracts were filtered with Teflon membrane dimensions 0.45 μm by 13 mm (Millex®-LCR); 20 μL of each filtered sample was injected into the HPLC equipment. The measurements were performed in a (Waters corporation, Milford, CT, USA) 2695 HPLC with a diode array detector (Waters 2996) and processed with the Empower Pro 1.0 software. A Chromolith Performance® RP-18e 100 × 4.6 mm (Merck KGaA, Darmstadt, Germany) was used. The mobile phase consisted of a mixture of acetonitrile and water with the proportion 55:45 and a flow rate of 1 mL/min. The concentrations of the flavonoids and the biotransformation products were obtained by comparison with a pre-built calibration curve at λ = 220 nm.
To evaluate the suitability of the assay for the pharmacokinetic studies, 200 mg/kg of the active fraction was orally administered to the animals. Ten animals were used in each group at different times (0, 5, 10, 15, 30, 60, 120, 240, 480, 720, and 1440 min). Pharmacokinetic calculations were performed using the observed data. All data was subsequently processed using the PKSolver add-in program for Microsoft Excel written in Visual Basic for Applications. All values obtained were expressed in mean ± standard deviation.

[2] = test system: intestinal epithelial cells; set-up: method as in PMID 25761590; conditions: compared with the aglycone kaempherol; cited from earlier work
[3] = Stability of flavonoids and biotransformation products in mouse plasma under different handling conditions; format: in vitro ADME, mice
Experimental: as §1
[…] The investigation enclosed here expected manipulation conditions during all the sample storage and process periods, which included the stability data from the freeze/thaw, bench-top, autosampler, and long–term stability tests.
For all stability studies, fresh QC samples were evaluated by using a freshly prepared standard curve for the measurements. The concentrations obtained from all the stability studies were compared with the fresh QC samples, and the percentage concentration deviation was calculated. The analytes were considered stable in the mouse plasma when the concentration difference between the freshly prepared samples and the stability samples was less than 15%.

[4] = set-up: method as in PMID 11151743; conditions: glucoronides and sulphates of quercetin found in plasma; cited from earlier work
[5] = room temperature (25 °C), 0 h, high nominal conc.
[6] = room temperature (25 °C), 0 h, high nominal conc. (rutin 7.00; quercetin glucoside, quercitrin, tiliroside 44.37; kaempferol 4.50; m-HPAA, p-HPAA, DOPAC 31.25 µg/mL), n = 6
[7] = room temperature (25 °C), 0 h, low nominal conc.
[8] = room temperature (25 °C), 0 h, low nominal conc. (rutin 1.75; quercetin glucoside, quercitrin, tiliroside 11.02; kaempferol 1.12; m-HPAA, p-HPAA, DOPAC 1.95 µg/mL), n = 6
[9] = room temperature (25 °C), 0 h, medium nominal conc.
[10] = room temperature (25 °C), 0 h, medium nominal conc. (rutin 3.50; quercetin glucoside, quercitrin, tiliroside 22.18; kaempferol 2.24; m-HPAA, p-HPAA, DOPAC 7.81 µg/mL), n = 6
[11] = room temperature (25 °C), 8 h, high nominal conc.
[12] = room temperature (25 °C), 8 h, high nominal conc. (7.00; 44.37; 4.50; 31.25 µg/mL), n = 6
[13] = room temperature (25 °C), 8 h, low nominal conc.
[14] = room temperature (25 °C), 8 h, low nominal conc. (1.75; 11.02; 1.12; 1.95 µg/mL), n = 6
[15] = room temperature (25 °C), 8 h, medium nominal conc.
[16] = room temperature (25 °C), 8 h, medium nominal conc. (3.50; 22.18; 2.24; 7.81 µg/mL), n = 6
[17] = room temperature (25 °C), 24 h, high nominal conc.
[18] = room temperature (25 °C), 24 h, high nominal conc. (7.00; 44.37; 4.50; 31.25 µg/mL), n = 6
[19] = room temperature (25 °C), 24 h, low nominal conc.
[20] = room temperature (25 °C), 24 h, low nominal conc. (1.75; 11.02; 1.12; 1.95 µg/mL), n = 6
[21] = room temperature (25 °C), 24 h, medium nominal conc.
[22] = room temperature (25 °C), 24 h, medium nominal conc. (3.50; 22.18; 2.24; 7.81 µg/mL), n = 6
[23] = storage stability, high nominal conc.
[24] = storage stability, high nominal conc. (7.00; 44.37; 4.50; 31.25 µg/mL), n = 6
[25] = storage stability, low nominal conc.
[26] = storage stability, low nominal conc. (1.75; 11.02; 1.12; 1.95 µg/mL), n = 6
[27] = storage stability, medium nominal conc.
[28] = storage stability, medium nominal conc. (3.50; 22.18; 2.24; 7.81 µg/mL), n = 6

## O=C(/C=C/c1ccc(O)cc1)OC[C@H]1O[C@@H](Oc2c(-c3ccc(O)cc3)oc3cc(O)cc(O)c3c2=O)[C@H](O)[C@@H](O)[C@@H]1O [Tiliroside, tiliroside]
[1]
  flavonoids found in the plasma after oral administration: not found
[2]
  permeability to the intestinal epithelial cells: completely impermeable
[3]; [5]
  Accuracy Bias 0 h: 1.35%
[3]; [6]
  Observed Conc. 0 h: 43.77 ± 4.28 µg/mL
[3]; [7]
  Accuracy Bias 0 h: 4.59%
[3]; [8]
  Observed Conc. 0 h: 10.54 ± 0.74 µg/mL
[3]; [9]
  Accuracy Bias 0 h: 3.36%
[3]; [10]
  Observed Conc. 0 h: 21.44 ± 2.13 µg/mL
[3]; [11]
  Accuracy Bias 8 h: −0.64%
[3]; [12]
  Observed Conc. 8 h: 44.65 ± 4.37 µg/mL
[3]; [13]
  Accuracy Bias 8 h: 6.26%
[3]; [14]
  Observed Conc. 8 h: 10.33 ± 0.61 µg/mL
[3]; [15]
  Accuracy Bias 8 h: −2.95%
[3]; [16]
  Observed Conc. 8 h: 22.84 ± 2.57 µg/mL
[3]; [17]
  Accuracy Bias 24 h: 7.03%
[3]; [18]
  Observed Conc. 24 h: 41.25 ± 2.04 µg/mL
[3]; [19]
  Accuracy Bias 24 h: 4.48%
[3]; [20]
  Observed Conc. 24 h: 10.53 ± 0.79 µg/mL
[3]; [21]
  Accuracy Bias 24 h: 7.14%
[3]; [22]
  Observed Conc. 24 h: 20.60 ± 2.05 µg/mL
[3]; [23]
  Accuracy Bias Autosampler (4 °C; 8 h): 3.66%
  Accuracy Bias Long-term (−70°C; 1 month): 0.24%
[3]; [24]
  Observed Conc. Autosampler (4 °C; 8 h): 42.74 ± 3.40 µg/mL
  Observed Conc. Long-term (−70 °C; 1 month): 44.26 ± 2.49 µg/mL
[3]; [25]
  Accuracy Bias Autosampler (4 °C; 8 h): 3.97%
  Accuracy Bias Long-term (−70°C; 1 month): 5.54%
[3]; [26]
  Observed Conc. Autosampler (4 °C; 8 h): 10.58 ± 0.81 µg/mL
  Observed Conc. Long-term (−70 °C; 1 month): 10.40 ± 0.99 µg/mL
[3]; [27]
  Accuracy Bias Autosampler (4 °C; 8 h): −3.45%
  Accuracy Bias Long-term (−70°C; 1 month): 3.42%
[3]; [28]
  Observed Conc. Autosampler (4 °C; 8 h): 22.94 ± 2.25 µg/mL
  Observed Conc. Long-term (−70 °C; 1 month): 21.41 ± 1.82 µg/mL

## C[C@@H]1O[C@@H](OC[C@H]2O[C@@H](Oc3c(-c4ccc(O)c(O)c4)oc4cc(O)cc(O)c4c3=O)[C@H](O)[C@@H](O)[C@@H]2O)[C@H](O)[C@H](O)[C@H]1O [Rutin, rutin]
[1]
  flavonoids found in the plasma after oral administration: not found
[4]
  absorption into the vascular space after oral administration: not absorbed
[3]
  Observed Conc. 0 h: 3.39 ± 0.16 µg/mL
  Observed Conc. 8 h: 3.67 ± 0.30 µg/mL
  Observed Conc. 24 h: 3.38 ± 0.27 µg/mL
  Observed Conc. Autosampler (4 °C; 8 h): 3.44 ± 0.15 µg/mL
  Observed Conc. Long-term (−70 °C; 1 month): 3.51 ± 0.28 µg/mL
[3]; [5]
  Accuracy Bias 0 h: −1.99%
[3]; [6]
  Observed Conc. 0 h: 7.27 ± 0.41 µg/mL
[3]; [7]
  Accuracy Bias 0 h: 5.76%
[3]; [8]
  Observed Conc. 0 h: 1.74 ± 0.11 µg/mL
[3]; [9]
  Accuracy Bias 0 h: 3.17%
[3]; [11]
  Accuracy Bias 8 h: −2.45%
[3]; [12]
  Observed Conc. 8 h: 7.17 ± 0.21 µg/mL
[3]; [13]
  Accuracy Bias 8 h: 5.46%
[3]; [14]
  Observed Conc. 8 h: 1.65 ± 0.10 µg/mL
[3]; [15]
  Accuracy Bias 8 h: −4.97%
[3]; [17]
  Accuracy Bias 24 h: −3.93%
[3]; [18]
  Observed Conc. 24 h: 7.13 ± 0.24 µg/mL
[3]; [19]
  Accuracy Bias 24 h: 0.33%
[3]; [20]
  Observed Conc. 24 h: 1.64 ± 0.10 µg/mL
[3]; [21]
  Accuracy Bias 24 h: 2.93%
[3]; [23]
  Accuracy Bias Autosampler (4 °C; 8 h): −1.17%
  Accuracy Bias Long-term (−70°C; 1 month): −1.56%
[3]; [24]
  Observed Conc. Autosampler (4 °C; 8 h): 7.08 ± 0.34 µg/mL
  Observed Conc. Long-term (−70 °C; 1 month): 7.10 ± 0.38 µg/mL
[3]; [25]
  Accuracy Bias Autosampler (4 °C; 8 h): −6.41%
  Accuracy Bias Long-term (−70°C; 1 month): 2.92%
[3]; [26]
  Observed Conc. Autosampler (4 °C; 8 h): 1.86 ± 0.19 µg/mL
  Observed Conc. Long-term (−70 °C; 1 month): 1.69 ± 0.12 µg/mL
[3]; [27]
  Accuracy Bias Autosampler (4 °C; 8 h): 1.58%
  Accuracy Bias Long-term (−70°C; 1 month): −0.45%

## O=c1c(O[C@@H]2O[C@H](CO)[C@@H](O)[C@H](O)[C@H]2O)c(-c2ccc(O)c(O)c2)oc2cc(O)cc(O)c12 [Quercetin glucoside, quercetin glucoside]
[1]
  flavonoids found in the plasma after oral administration: not found
[3]; [5]
  Accuracy Bias 0 h: 2.86%
[3]; [6]
  Observed Conc. 0 h: 43.10 ± 2.20 µg/mL
[3]; [7]
  Accuracy Bias 0 h: −1.24%
[3]; [8]
  Observed Conc. 0 h: 11.16 ± 0.27 µg/mL
[3]; [9]
  Accuracy Bias 0 h: 5.94%
[3]; [10]
  Observed Conc. 0 h: 20.86 ± 1.35 µg/mL
[3]; [11]
  Accuracy Bias 8 h: 4.28%
[3]; [12]
  Observed Conc. 8 h: 42.48 ± 1.06 µg/mL
[3]; [13]
  Accuracy Bias 8 h: 1.62%
[3]; [14]
  Observed Conc. 8 h: 10.84 ± 0.67 µg/mL
[3]; [15]
  Accuracy Bias 8 h: 6.02%
[3]; [16]
  Observed Conc. 8 h: 20.84 ± 1.24 µg/mL
[3]; [17]
  Accuracy Bias 24 h: 6.76%
[3]; [18]
  Observed Conc. 24 h: 41.37 ± 1.17 µg/mL
[3]; [19]
  Accuracy Bias 24 h: −2.98%
[3]; [20]
  Observed Conc. 24 h: 11.35 ± 0.61 µg/mL
[3]; [21]
  Accuracy Bias 24 h: 7.83%
[3]; [22]
  Observed Conc. 24 h: 20.44 ± 1.65 µg/mL
[3]; [23]
  Accuracy Bias Autosampler (4 °C; 8 h): −1.82%
  Accuracy Bias Long-term (−70°C; 1 month): −3.52%
[3]; [24]
  Observed Conc. Autosampler (4 °C; 8 h): 43.30 ± 2.02 µg/mL
  Observed Conc. Long-term (−70 °C; 1 month): 41.60 ± 2.26 µg/mL
[3]; [25]
  Accuracy Bias Autosampler (4 °C; 8 h): 2.40%
  Accuracy Bias Long-term (−70°C; 1 month): 6.22%
[3]; [26]
  Observed Conc. Autosampler (4 °C; 8 h): 11.22 ± 0.59 µg/mL
  Observed Conc. Long-term (−70 °C; 1 month): 11.41 ± 0.71 µg/mL
[3]; [27]
  Accuracy Bias Autosampler (4 °C; 8 h): 5.48%
  Accuracy Bias Long-term (−70°C; 1 month): 7.26%
[3]; [28]
  Observed Conc. Autosampler (4 °C; 8 h): 20.96 ± 1.31 µg/mL
  Observed Conc. Long-term (−70 °C; 1 month): 20.57 ± 2.06 µg/mL
